From patent US20020197365A1, “Highly acidic metalated mixture of inorganic acids” (priority 2001, published 2002)

Conditions: in vivo

O=S(=O)(O)O [sulfuric acid]
irritation or injury of a hand put into the solution: an irritation would occur within a relatively short span of time
